Laboratory results from patent US10709769B2, “Use of endostatin peptides for the treatment of fibrosis” (University of Pittsburgh—Of the Commonwealth System of …, priority 2009, dated 2020).

Key:
[1] = tested on: Human umbilical vein endothelial cells (HUVECs); experiment: Tubular formation assay in Matrigel; type: cell-based; conditions: 50 nM, 24 hours
Protocol: The ability of endostatin peptide to inhibit angiogenesis was examined in tubular formation assay using Matrigel® culture. Human umbilical vein endothelial cells (HUVECs) were maintained in endothelial cell basal medium-2 (EBM-2; Clonetics, San Diego, Calif.) supplemented with EBM-2 MV SingleQuots®. HUVECs (5×10^4) were cultured in duplicate on 24-well Matrigel® plates (BD Biosciences, San Diego, Calif.) alone, or in the presence of rE or E4 peptide (50 nM) in EBM-2 at 37° C. DMSO was used as vehicle control. After 24 hours, images were captured using a […] microscope. The degree of cord formation was quantified by measuring the area occupied by tubes in 6 random fields per well. Three independent experiments were performed.

[2] = tested on: human primary lung fibroblasts; experiment: FN and Col1α1 western blot in TGF-β-treated primary lung fibroblasts; type: cell-based; conditions: normal human lung fibroblasts; TGF-β 10 ng/ml 24 h, then 5 μg/ml rE or peptide 48 h; vs TGF-β alone
Protocol: (§1) Human primary lung and skin fibroblasts were cultured. The explanted lungs of normal organ donors, patients with SSc or IPF, and clinically involved skin of SSc patients, a morphea patient and healthy donors were used for primary fibroblast culture. Approximately 2-cm pieces of peripheral lung and skin were minced and fibroblasts were cultured in Dulbecco's modified Eagle's medium (DMEM; Mediatech, Herndon, Va.) supplemented with 10% FBS, penicillin, streptomycin, and anti-mycotic agent, as previously described (Feghali et al., Arthritis Rheum 1999; 42:1451-7). All the cells were used between passages 3-6.
Cellular lysates were obtained from cultured fibroblasts as previously described (Pilewski et al., Am J Pathol 2005; 166:399-407). Briefly, 2.0×10^5 primary fibroblasts were cultured in 35-mm wells in 0.5% FBS-containing medium supplemented with 10 ng/ml of human recombinant TGF-β or PBS as vehicle control for 24 h, following which 5 μg/ml of human rE, endostatin peptides (E1-E4), or DMSO (vehicle) was added for 48 h. In some experiments, endostatin peptides were used without TGF-β stimulation. Cellular lysates were analyzed by western blot. Signals were detected following incubation with horseradish peroxidase-conjugated secondary antibody and chemiluminescence (Perkin Elmer Life Sciences, Inc., Boston, Mass.). The intensity of individual bands with expected molecular sizes was semi-quantitatively analyzed using the image/J® software available at on the internet (/rsb.info.nih.gov/ij/index.html), and normalized to individual GAPDH intensity.
To evaluate whether endostatin modulates production of ECM components in fibroblasts, FN and Col1α1 expression was examined in normal human lung fibroblasts by western blot analysis. Cells were treated with 5 µg/ml rE for 48 h with or without pre-stimulation with human TGF-β for 24 h. […] To define the functional domain of endostatin that mediates its inhibitory effect, four different peptides were synthesized corresponding to different regions of endostatin (Table 1).

[3] = tested on: human primary skin fibroblasts; experiment: TGF-β-induced ECM production in primary skin (dermal) fibroblasts, western blot; type: cell-based; conditions: dermal fibroblasts from healthy controls, SSc or morphea patients
Protocol: as §1
(§2) Cellular lysates were obtained from cultured fibroblasts as previously described (Pilewski et al., Am J Pathol 2005; 166:399-407). […] Cellular lysates were analyzed by western blot. Signals were detected following incubation with horseradish peroxidase-conjugated secondary antibody and chemiluminescence (Perkin Elmer Life Sciences, Inc., Boston, Mass.). The intensity of individual bands with expected molecular sizes was semi-quantitatively analyzed using the image/J® software available at on the internet (/rsb.info.nih.gov/ij/index.html), and normalized to individual GAPDH intensity. […]

[4] = tested on: fibrotic lung fibroblasts from patients with IPF; experiment: FN and Col1α1 in fibrotic lung fibroblasts without TGF-β stimulation, western blot; type: cell-based, human
From the text: FIGS. 1A-1F. ECM production in recombinant endostatin- and endostatin-derived peptide-treated fibroblasts in combination with TGF-β stimulation. A: FN and Col1α1 expression in human normal lung fibroblasts (NL) treated with vehicle (V), rE alone, or both with prior TGF-β stimulation. Proteins were detected western blot. GAPDH was used as a loading control for lysates. B: FN and Col1α1 expression of endostatin polypeptide-treated lung fibroblasts following TGF-β stimulation in primary pulmonary fibroblasts from a healthy control, a patient with SSc, and a patient with IPF. C: Graphical summary of FN and Col1α1 expression in lung fibroblasts obtained using fibroblasts from 4 healthy controls (NL), 3 patients with SSc, and 3 patients with IPF. Intensity of bands was normalized to that of GAPDH and expressed as a ratio to Vehicle (V). Paired-t test was used for statistical analysis. * P<0.04, ** P<0.01. D: Representative result of FN and Col1α1 levels in human skin fibroblasts obtained from a patient with morphea and a patient with SSc. E: Representative result of FN and Col1α1 expression in fibrotic fibroblasts obtained from a patients with IPF treated with V, 5 μg/ml of rE, or endostatin polypeptides alone (left). IPF fibroblasts were treated with different concentrations (5, 10, and 20 μg/ml) of E4. DMSO (V) was added in a volume equivalent to that in the lane corresponding to 20 μg/ml of E4 (right). […]
as §2

[5] = tested on: normal lung fibroblasts; experiment: α-SMA levels in TGF-β-stimulated normal lung fibroblasts; type: cell-based, human; conditions: peptide following TGF-β stimulation
From the text: FIGS. 1A-1F. ECM production in recombinant endostatin- and endostatin-derived peptide-treated fibroblasts in combination with TGF-β stimulation. A: FN and Col1α1 expression in human normal lung fibroblasts (NL) treated with vehicle (V), rE alone, or both with prior TGF-β stimulation. Proteins were detected western blot. GAPDH was used as a loading control for lysates. B: FN and Col1α1 expression of endostatin polypeptide-treated lung fibroblasts following TGF-β stimulation in primary pulmonary fibroblasts from a healthy control, a patient with SSc, and a patient with IPF. […] Intensity of bands was normalized to that of GAPDH and expressed as a ratio to Vehicle (V). […]
as §2

[6] = no TGF-β, 5, 10 and 20 μg/ml, vs vehicle control

## H-^133SYCETWRTEAPSATGQASSLLGGRLLGQSAASCHHAYIVLCIENSFMT^180-CONH2 (H-SYCETWRTEAPSATGQASSLLGGRLLGQSAASCHHAYIVLCIENSFMT-NH2; cysteine pairing not given here; UniProt P39060 1704-1751, looked up, fragment) [E4, amino acids 133-180 of human endostatin; differs from E3 by the presence of a carboxy-terminal amide]
[1]
  inhibition of tubular structure formation: modest
[2]
  FN and Col1α1 levels/production: significantly suppressed
[3]
  TGF-β-induced ECM production (FN, Col1α1): reduced
[4]; no TGF-β stimulation, peptide alone
  FN and Col1α1 levels: decreased
[4]; [6]
  Col1α1 levels: dose-dependently reduced
  FN levels: modest effect
[5]
  TGF-β-induced α-SMA levels: decreased
